# Measured values as given in ChEMBL document CHEMBL1146326, “13C bis-labeled pyrroles: a tool for the identification of the rat metabolism of 3-methyl pyrrole-2,4-dicarboxylic acid 2-propyl ester 4-(1,2,2-trimethyl-propyl) ester” (Bioorg Med Chem Lett, 2007).
# Target: Metabotropic glutamate receptor 1 (Homo sapiens, UniProt Q13255)
# Assay: Inhibition of recombinant mGluR1a receptor expressed in CHO cells
# Assay type: cell-based
# Metabotropic glutamate receptor 1, sequence (Q13255 whole entry): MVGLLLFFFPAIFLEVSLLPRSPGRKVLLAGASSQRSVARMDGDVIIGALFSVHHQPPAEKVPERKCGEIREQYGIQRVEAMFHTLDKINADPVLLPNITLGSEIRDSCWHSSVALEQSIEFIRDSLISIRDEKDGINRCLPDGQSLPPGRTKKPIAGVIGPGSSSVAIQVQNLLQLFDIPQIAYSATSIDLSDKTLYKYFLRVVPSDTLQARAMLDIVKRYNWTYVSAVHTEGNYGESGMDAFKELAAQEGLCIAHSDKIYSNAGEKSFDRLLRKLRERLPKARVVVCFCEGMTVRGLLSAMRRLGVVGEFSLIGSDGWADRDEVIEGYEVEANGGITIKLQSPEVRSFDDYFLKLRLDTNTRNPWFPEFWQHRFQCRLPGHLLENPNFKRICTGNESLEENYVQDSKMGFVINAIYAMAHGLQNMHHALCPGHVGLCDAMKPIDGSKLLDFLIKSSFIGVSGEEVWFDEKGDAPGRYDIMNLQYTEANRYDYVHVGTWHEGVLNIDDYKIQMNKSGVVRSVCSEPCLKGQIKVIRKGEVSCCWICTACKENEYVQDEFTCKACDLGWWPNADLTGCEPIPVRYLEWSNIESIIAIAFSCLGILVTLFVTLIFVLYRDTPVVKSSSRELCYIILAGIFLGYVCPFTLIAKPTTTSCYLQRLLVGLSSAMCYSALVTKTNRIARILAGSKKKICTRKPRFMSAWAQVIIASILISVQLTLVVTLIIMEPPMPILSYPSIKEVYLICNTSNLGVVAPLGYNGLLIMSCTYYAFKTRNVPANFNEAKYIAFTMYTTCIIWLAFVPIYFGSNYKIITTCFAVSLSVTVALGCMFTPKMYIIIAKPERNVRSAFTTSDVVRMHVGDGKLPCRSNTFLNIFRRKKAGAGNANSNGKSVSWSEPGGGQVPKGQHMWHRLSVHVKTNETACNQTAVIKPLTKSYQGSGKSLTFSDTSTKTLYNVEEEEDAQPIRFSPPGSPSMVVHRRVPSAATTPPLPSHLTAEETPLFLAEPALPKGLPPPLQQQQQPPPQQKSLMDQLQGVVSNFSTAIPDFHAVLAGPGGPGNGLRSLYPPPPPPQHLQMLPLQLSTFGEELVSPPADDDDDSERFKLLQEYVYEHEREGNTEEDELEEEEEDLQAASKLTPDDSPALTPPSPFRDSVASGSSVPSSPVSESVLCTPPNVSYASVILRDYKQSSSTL
row,Structure (SMILES),IC50 [nM]
1,CC(=O)NCCCCNC(=O)c1[nH]cc(C(=O)OC2CC3CCC2C3)c1C (centres undefined),200
2,COCCNC(=O)c1[nH]cc(C(=O)OC2CC3CCC2C3)c1C (centres undefined),158
3,CC(=O)NCCCCNC(=O)c1[nH]c(C)c(C(=O)OC2CC3CCC2C3)c1C (centres undefined),1000
4,COCCNC(=O)c1[nH]cc(C(=O)NC2CC3CCC2C3)c1C (centres undefined),> 10000
5,COCCNC(=O)c1[nH]c(C)c(C(=O)OC2CC3CCC2C3)c1C (centres undefined),316

# Now those with a lower IC50, led by results:
row,IC50 [nM],Structure (SMILES)
1,31.6,COCCNC(=O)c1[nH]cc(C(=O)O[C@@H](C)C(C)(C)C)c1C
2,3.98,CCCOC(=O)c1[nH]cc(C(=O)O[C@@H](C)C(C)(C)C)c1C
3,20,CCOC(=O)c1[nH]cc(C(=O)OC2CC3CCC2C3)c1C (centres undefined)
4,100,CCOC(=O)c1[nH]c(C)c(C(=O)OC2CC3CCC2C3)c1C (centres undefined)
